Measured values published in PubChem BioAssay (NCI).
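Cultured in 96-well plates, cells were exposed to test compound for 48 hours across five concentrations. GI50 marks 50% less growth. TGI marks complete inhibition of growth.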

How the values were obtained:
Assay in all cases: NCI tumour cell line growth inhibition, 48 h
MDA-MB-435 = test system: MDA-MB-435
HT29 colon = test system: HT29 colon
HOP-92 NSCLC = test system: HOP-92 NSCLC
ACHN renal = test system: ACHN renal
HOP-62 NSCLC = test system: HOP-62 NSCLC
TK-10 renal = test system: TK-10 renal
PC-3 prostate = test system: PC-3 prostate
M14 melanoma = test system: M14 melanoma
SF-295 CNS = test system: SF-295 CNS
NCI-H23 lung = test system: NCI-H23 lung
786-0 renal = test system: 786-0 renal
BT-549 breast = test system: BT-549 breast
SN12C renal = test system: SN12C renal
MCF7 breast = test system: MCF7 breast
NCI/ADR-RES ovarian = test system: NCI/ADR-RES ovarian
OVCAR-3 ovarian = test system: OVCAR-3 ovarian
IGROV1 ovarian = test system: IGROV1 ovarian
LOX IMVI melanoma = test system: LOX IMVI melanoma
NCI-H226 lung = test system: NCI-H226 lung
RPMI-8226 leukemia = test system: RPMI-8226 leukemia
OVCAR-5 ovarian = test system: OVCAR-5 ovarian
HCT-116 colon = test system: HCT-116 colon
CCRF-CEM leukemia = test system: CCRF-CEM leukemia
OVCAR-8 ovarian = test system: OVCAR-8 ovarian
DU-145 prostate = test system: DU-145 prostate
SK-MEL-28 melanoma = test system: SK-MEL-28 melanoma
SW-620 colon = test system: SW-620 colon
CAKI-1 renal = test system: CAKI-1 renal
EKVX NSCLC = test system: EKVX NSCLC
SK-MEL-5 melanoma = test system: SK-MEL-5 melanoma
SF-268 CNS = test system: SF-268 CNS
KM12 colon = test system: KM12 colon
SK-OV-3 ovarian = test system: SK-OV-3 ovarian
K-562 leukemia = test system: K-562 leukemia
SK-MEL-2 melanoma = test system: SK-MEL-2 melanoma
SF-539 CNS = test system: SF-539 CNS
U251 CNS = test system: U251 CNS
UO-31 renal = test system: UO-31 renal
COLO 205 colon = test system: COLO 205 colon
A498 renal = test system: A498 renal
HCT-15 colon = test system: HCT-15 colon
MDA-MB-231 breast = test system: MDA-MB-231 breast
NCI-H460 lung = test system: NCI-H460 lung
UACC-257 melanoma = test system: UACC-257 melanoma
RXF 393 renal = test system: RXF 393 renal
HCC-2998 colon = test system: HCC-2998 colon
A549 NSCLC = test system: A549 NSCLC
NCI-H522 lung = test system: NCI-H522 lung
SNB-19 CNS = test system: SNB-19 CNS
MALME-3M melanoma = test system: MALME-3M melanoma
T-47D breast = test system: T-47D breast
HS 578T breast = test system: HS 578T breast
HL-60(TB) leukemia = test system: HL-60(TB) leukemia
UACC-62 melanoma = test system: UACC-62 melanoma

**Q.** For `CCOC(=O)/C=C/C(C(=O)/C=C/c1ccc(OC2CCCCO2)c(OC)c1)=C(O)\C=C\c1ccc(OC2CCCCO2)c(OC)c1` (stereo not drawn), which GI50 (MDA-MB-435) is on record?
**A.** 3.23 µM

**Q.** And the TGI (MDA-MB-435)?
**A.** 13.6 µM

**Q.** And the GI50 (HT29 colon)?
**A.** 1.94 µM

**Q.** And the TGI (HT29 colon)?
**A.** 4.51 µM

**Q.** And the GI50 (HOP-92 NSCLC)?
**A.** 20.2 µM

**Q.** And the TGI (HOP-92 NSCLC)?
**A.** 58.2 µM

**Q.** What about the GI50 (ACHN renal) of the same compound?
**A.** 3.61 µM

**Q.** And the TGI (ACHN renal)?
**A.** 12.5 µM

**Q.** What about the GI50 (HOP-62 NSCLC) of the same compound?
**A.** 6.09 µM

**Q.** What about the TGI (HOP-62 NSCLC) of the same compound?
**A.** 32.5 µM

**Q.** And the GI50 (TK-10 renal)?
**A.** 2.84 µM

**Q.** What about the TGI (TK-10 renal) of the same compound?
**A.** 9.21 µM

**Q.** And the GI50 (PC-3 prostate)?
**A.** 3.85 µM

**Q.** What about the TGI (PC-3 prostate) of the same compound?
**A.** > 100 µM

**Q.** And the GI50 (M14 melanoma)?
**A.** 3.48 µM

**Q.** What about the TGI (M14 melanoma) of the same compound?
**A.** 15.3 µM

**Q.** What about the GI50 (SF-295 CNS) of the same compound?
**A.** 10.7 µM

**Q.** And the TGI (SF-295 CNS)?
**A.** 42.8 µM

**Q.** And the GI50 (NCI-H23 lung)?
**A.** 5.9 µM

**Q.** And the TGI (NCI-H23 lung)?
**A.** 18.7 µM

**Q.** And the GI50 (786-0 renal)?
**A.** 4.96 µM

**Q.** What about the TGI (786-0 renal) of the same compound?
**A.** 20.3 µM

**Q.** And the GI50 (BT-549 breast)?
**A.** 5.18 µM

**Q.** And the TGI (BT-549 breast)?
**A.** 28.4 µM

**Q.** What about the GI50 (SN12C renal) of the same compound?
**A.** 2.16 µM

**Q.** And the TGI (SN12C renal)?
**A.** 4.96 µM

**Q.** And the GI50 (MCF7 breast)?
**A.** 4.42 µM

**Q.** What about the TGI (MCF7 breast) of the same compound?
**A.** 36.2 µM

**Q.** What about the GI50 (NCI/ADR-RES ovarian) of the same compound?
**A.** 10.6 µM

**Q.** What about the TGI (NCI/ADR-RES ovarian) of the same compound?
**A.** 46.3 µM

**Q.** What about the GI50 (OVCAR-3 ovarian) of the same compound?
**A.** 2.58 µM

**Q.** And the TGI (OVCAR-3 ovarian)?
**A.** 8.47 µM

**Q.** What about the GI50 (IGROV1 ovarian) of the same compound?
**A.** 2.85 µM

**Q.** And the TGI (IGROV1 ovarian)?
**A.** 6.68 µM

**Q.** What about the GI50 (LOX IMVI melanoma) of the same compound?
**A.** 1.63 µM

**Q.** And the TGI (LOX IMVI melanoma)?
**A.** 3.32 µM

**Q.** And the GI50 (NCI-H226 lung)?
**A.** 12.9 µM

**Q.** What about the TGI (NCI-H226 lung) of the same compound?
**A.** 34.7 µM

**Q.** What about the GI50 (RPMI-8226 leukemia) of the same compound?
**A.** 4.13 µM

**Q.** And the TGI (RPMI-8226 leukemia)?
**A.** 17.8 µM

**Q.** And the GI50 (OVCAR-5 ovarian)?
**A.** 7.81 µM

**Q.** What about the TGI (OVCAR-5 ovarian) of the same compound?
**A.** 74.5 µM

**Q.** What about the GI50 (HCT-116 colon) of the same compound?
**A.** 2.09 µM

**Q.** And the TGI (HCT-116 colon)?
**A.** 4.76 µM

**Q.** And the GI50 (CCRF-CEM leukemia)?
**A.** 2.69 µM

**Q.** And the TGI (CCRF-CEM leukemia)?
**A.** 8.35 µM

**Q.** What about the GI50 (OVCAR-8 ovarian) of the same compound?
**A.** 2.51 µM

**Q.** What about the TGI (OVCAR-8 ovarian) of the same compound?
**A.** 6.2 µM

**Q.** And the GI50 (DU-145 prostate)?
**A.** 7.01 µM

**Q.** And the TGI (DU-145 prostate)?
**A.** 42.6 µM

**Q.** What about the GI50 (SK-MEL-28 melanoma) of the same compound?
**A.** 2.48 µM

**Q.** What about the TGI (SK-MEL-28 melanoma) of the same compound?
**A.** 6.74 µM

**Q.** And the GI50 (SW-620 colon)?
**A.** 3.65 µM

**Q.** What about the TGI (SW-620 colon) of the same compound?
**A.** > 100 µM

**Q.** And the GI50 (CAKI-1 renal)?
**A.** 4.97 µM

**Q.** What about the TGI (CAKI-1 renal) of the same compound?
**A.** > 100 µM

**Q.** What about the GI50 (EKVX NSCLC) of the same compound?
**A.** 10.7 µM

**Q.** What about the TGI (EKVX NSCLC) of the same compound?
**A.** > 100 µM

**Q.** And the GI50 (SK-MEL-5 melanoma)?
**A.** 4.44 µM

**Q.** What about the TGI (SK-MEL-5 melanoma) of the same compound?
**A.** 16.5 µM

**Q.** And the GI50 (SF-268 CNS)?
**A.** 4.88 µM

**Q.** What about the TGI (SF-268 CNS) of the same compound?
**A.** > 100 µM

**Q.** What about the GI50 (KM12 colon) of the same compound?
**A.** 4.75 µM

**Q.** And the TGI (KM12 colon)?
**A.** 19 µM

**Q.** And the GI50 (SK-OV-3 ovarian)?
**A.** 23.1 µM

**Q.** What about the TGI (SK-OV-3 ovarian) of the same compound?
**A.** > 100 µM

**Q.** What about the GI50 (K-562 leukemia) of the same compound?
**A.** 2.62 µM

**Q.** What about the TGI (K-562 leukemia) of the same compound?
**A.** 75 µM

**Q.** What about the GI50 (SK-MEL-2 melanoma) of the same compound?
**A.** 3.27 µM

**Q.** What about the TGI (SK-MEL-2 melanoma) of the same compound?
**A.** 15.2 µM

**Q.** And the GI50 (SF-539 CNS)?
**A.** 20.3 µM

**Q.** What about the TGI (SF-539 CNS) of the same compound?
**A.** 53.1 µM

**Q.** What about the GI50 (U251 CNS) of the same compound?
**A.** 3.36 µM

**Q.** And the TGI (U251 CNS)?
**A.** 12.6 µM

**Q.** What about the GI50 (UO-31 renal) of the same compound?
**A.** 2.63 µM

**Q.** What about the TGI (UO-31 renal) of the same compound?
**A.** 7.56 µM

**Q.** What about the GI50 (COLO 205 colon) of the same compound?
**A.** 3.1 µM

**Q.** And the TGI (COLO 205 colon)?
**A.** 11.4 µM

**Q.** What about the GI50 (A498 renal) of the same compound?
**A.** 18.3 µM

**Q.** What about the TGI (A498 renal) of the same compound?
**A.** 35.7 µM

**Q.** And the GI50 (HCT-15 colon)?
**A.** 3.59 µM

**Q.** What about the TGI (HCT-15 colon) of the same compound?
**A.** 12.6 µM

**Q.** And the GI50 (MDA-MB-231 breast)?
**A.** 2.56 µM

**Q.** What about the TGI (MDA-MB-231 breast) of the same compound?
**A.** 6.73 µM

**Q.** And the GI50 (NCI-H460 lung)?
**A.** 11.9 µM

**Q.** And the TGI (NCI-H460 lung)?
**A.** 50.5 µM

**Q.** What about the GI50 (UACC-257 melanoma) of the same compound?
**A.** 19.8 µM

**Q.** And the TGI (UACC-257 melanoma)?
**A.** 78.4 µM

**Q.** What about the GI50 (RXF 393 renal) of the same compound?
**A.** 2.21 µM

**Q.** What about the TGI (RXF 393 renal) of the same compound?
**A.** 5.68 µM

**Q.** What about the GI50 (HCC-2998 colon) of the same compound?
**A.** 9.53 µM

**Q.** What about the TGI (HCC-2998 colon) of the same compound?
**A.** 21.6 µM

**Q.** And the GI50 (A549 NSCLC)?
**A.** 13.5 µM

**Q.** And the TGI (A549 NSCLC)?
**A.** 39 µM

**Q.** What about the GI50 (NCI-H522 lung) of the same compound?
**A.** 2.22 µM

**Q.** What about the TGI (NCI-H522 lung) of the same compound?
**A.** 6.68 µM

**Q.** What about the GI50 (SNB-19 CNS) of the same compound?
**A.** 5.32 µM

**Q.** What about the TGI (SNB-19 CNS) of the same compound?
**A.** 25.2 µM

**Q.** And the GI50 (MALME-3M melanoma)?
**A.** 2.07 µM

**Q.** And the TGI (MALME-3M melanoma)?
**A.** 5.9 µM

**Q.** What about the GI50 (T-47D breast) of the same compound?
**A.** 15.1 µM

**Q.** What about the TGI (T-47D breast) of the same compound?
**A.** 60.3 µM

**Q.** And the GI50 (HS 578T breast)?
**A.** 12.3 µM

**Q.** And the TGI (HS 578T breast)?
**A.** 80.5 µM

**Q.** And the GI50 (HL-60(TB) leukemia)?
**A.** 3.01 µM

**Q.** What about the TGI (HL-60(TB) leukemia) of the same compound?
**A.** > 100 µM

**Q.** And the GI50 (UACC-62 melanoma)?
**A.** 3.02 µM

**Q.** What about the TGI (UACC-62 melanoma) of the same compound?
**A.** 12.8 µM
